The source of these data is ChEMBL document CHEMBL1138457, “Design and synthesis of an orally bioavailable and selective peptide epoxyketone proteasome inhibitor (PR-047)” (J Med Chem, 2009).

pIC50: −log10 of the molar value.

Usually pIC50 stands for the negative decadic logarithm of the IC50, by convention in mol/L.

Series [1] can be described thus: Cytotoxicity against multidrug resistance transporter expressing doxorubicin resistant human MESSA cells assessed as cell viability after 72 hrs by CellTiter-Glo luminescent assay. It is filed as functional, cell-based. As to conditions: MES-SA. (In general: ATP-based viability assays read luminescence as a measure of living cells.)
The nature of series [2]: Inhibition of chymotrypsin-like activity of 20S proteasome in human MOLT4 cells after 1 hr by […]. It is filed as cell-based. The conditions noted are these: MOLT-4, 1 h.
Series [3] in a line: Cytotoxicity against human MESSA cells assessed as cell viability after 72 hrs by CellTiter-Glo luminescent assay. Type of series: functional, cell-based. The conditions noted are these: MES-SA.
Series [4] is described as follows: Inhibition of chymotrypsin-like activity of human 20S proteasome by spectrofluorimetry.
The nature of series [5]: Chemical stability in simulated intestinal fluid assessed as compound remaining at 4 uM after 15 mins. It is filed as physicochemical. The conditions noted are these: read-out: Stability.
For series [6], the system named is Mus musculus. In words: Inhibition of chymotrypsin-like activity of 20S proteasome in BALB/c mouse adrenal gland 40 mg/kg, po after 1 hr. Details: scale not given: the % may be the effect or the level left. Type of series: functional.
The test system of series [7] is Mus musculus. As to the kind of experiment: Inhibition of chymotrypsin-like activity of 20S proteasome in BALB/c mouse adrenal gland at 20 mg/kg, po after 1 hr. Type of series: functional. The arrangement: scale not given: the % may be the effect or the level left.
Series [8] is described as follows: Metabolic stability in mouse liver microsomes assessed as extraction ratio at 1 uM. Type of series: ADME, Microsome. (Liver microsomes are vesicles of endoplasmic reticulum, rich in cytochrome P450 enzymes.)

For the compound `CC(C)C[C@H](NC(=O)c1ccnnc1)C(=O)N[C@@H](Cc1ccccc1)C(=O)N[C@@H](CC(C)C)C(=O)[C@@]1(C)CO1`, the negative logarithm of the IC50 (pIC50) in series [1] is < 6.00; in series [2], 7.30; in series [3] it was 7.74; in series [4], 7.92.
For `CC(C)C[C@H](NC(=O)[C@@H]1CCCO1)C(=O)N[C@@H](Cc1ccccc1)C(=O)N[C@@H](CC(C)C)C(=O)[C@@]1(C)CO1` the same measures were 6.80, 6.74, 6.89 and 7.38.
Turning to `CC(C)C[C@H](NC(=O)c1cc(C(C)C)on1)C(=O)N[C@@H](Cc1ccccc1)C(=O)N[C@@H](CC(C)C)C(=O)[C@@]1(C)CO1`, the pIC50 in series [1] is 7.52; in series [2], 7.77; in series [3] it was 7.20; in series [4], 8.20.
As to `COCC[C@H](NC(=O)c1cc(CN2CCOCC2)on1)C(=O)N[C@@H](Cc1ccccc1)C(=O)N[C@@H](CC(C)C)C(=O)[C@@]1(C)CO1`, in series [5], the remaining at 0.25 h, 4 µM is 90%. In the series on Mus musculus [6], this compound displayed an Activity of 81%. Further, the pIC50 in series [1] was 5.94; in series [2] it was 7.38; in series [3], 7.62; in series [4] it was 7.72.
As for `CC(C)C[C@H](NC(=O)c1cc[nH]n1)C(=O)N[C@@H](Cc1ccccc1)C(=O)N[C@@H](CC(C)C)C(=O)[C@@]1(C)CO1`, the pIC50 in series [1] is < 6.00; in series [2], 6.73; in series [3] it was 6.96; in series [4], 7.44.
In the same order, the values of `CC(C)C[C@H](NC(=O)c1cnccn1)C(=O)N[C@@H](Cc1ccccc1)C(=O)N[C@@H](CC(C)C)C(=O)[C@@]1(C)CO1` are < 6.00, < 6.00, < 6.00 and 6.12.
Turning to `COC[C@H](NC(=O)c1cc(CN2CCOCC2)on1)C(=O)N[C@@H](Cc1ccccc1)C(=O)N[C@@H](CC(C)C)C(=O)[C@@]1(C)CO1`, in series [5], the remaining at 0.25 h, 4 µM was 80%. Further, the Activity in the series with Mus musculus [6] is listed as 57%. The negative-log IC50 (pIC50) in series [1] is 6.83; in series [2], 7.59; in series [3], 7.89; in series [4], 8.24.
Take `CC(C)C[C@H](NC(=O)c1nccn1C)C(=O)N[C@@H](Cc1ccccc1)C(=O)N[C@@H](CC(C)C)C(=O)[C@@]1(C)CO1`: the pIC50 in series [1] is 6.79; in series [2], 6.79; in series [3], 7.17; in series [4], 6.91.
In the case of `CC(C)C[C@H](NC(=O)[C@H](Cc1ccccc1)NC(=O)[C@H](Cc1ccccn1)NC(=O)c1cc(CN2CCOCC2)on1)C(=O)[C@@]1(C)CO1`, the remaining at 0.25 h, 4 µM in series [5] is 20%. The compound further registered an Activity with Mus musculus [6] of 92%. Further, the pIC50 in series [1] was 6.38; in series [2], 7.51; in series [3] it was 7.96; in series [4], 8.28.
In the case of `COCC[C@H](NC(=O)c1cc(C)on1)C(=O)N[C@@H](Cc1ccccc1)C(=O)N[C@@H](CC(C)C)C(=O)[C@@]1(C)CO1`, the remaining at 0.25 h, 4 µM in series [5] is 80%. Besides, the Activity with Mus musculus [6] was 47%. In addition, the pIC50 in series [1] is 6.54; in series [2], 7.16; in series [3] it was 6.79; in series [4] it was 7.59.
Consider `CC(C)C[C@H](NC(=O)c1ccoc1)C(=O)N[C@@H](Cc1ccccc1)C(=O)N[C@@H](CC(C)C)C(=O)[C@@]1(C)CO1`, for which the pIC50 in series [1] is 6.90; in series [2] it was 6.94; in series [3], 7.27; in series [4], 7.47.
In the same order, the values of `CC(C)C[C@H](NC(=O)c1cccs1)C(=O)N[C@@H](Cc1ccccc1)C(=O)N[C@@H](CC(C)C)C(=O)[C@@]1(C)CO1` are 6.92, 7.40, 7.47 and 8.00.
As for `Cc1cc(C(=O)N[C@@H](Cc2ccncc2)C(=O)N[C@@H](Cc2ccccc2)C(=O)N[C@@H](CC(C)C)C(=O)[C@@]2(C)CO2)no1`, the remaining at 0.25 h, 4 µM in series [5] was 90%. Besides, the Activity in the series on Mus musculus [6] is given as 28%. Moreover, the negative logarithm of the IC50 (pIC50) in series [1] is 6.57; in series [2], 8.07; in series [3], 8.07; in series [4], 8.55.
As to `Cc1cc(C(=O)N[C@@H](Cc2cccnc2)C(=O)N[C@@H](Cc2ccccc2)C(=O)N[C@@H](CC(C)C)C(=O)[C@@]2(C)CO2)no1`, the remaining at 0.25 h, 4 µM in series [5] is 90%. The compound further yielded an Activity in the series on Mus musculus [6] of 70%. For the same compound, the pIC50 in series [1] is 6.27; in series [2] it was 7.57; in series [3], 7.41; in series [4], 8.80.
With `Cc1cc(C(=O)N[C@@H](Cc2ccccn2)C(=O)N[C@@H](Cc2ccccc2)C(=O)N[C@@H](CC(C)C)C(=O)[C@@]2(C)CO2)no1`, the remaining at 0.25 h, 4 µM in series [5] is 20%. This compound registered an Activity in the series with Mus musculus [6] of 23%. The pIC50 in series [1] is 6.66; in series [2], 7.11; in series [3] it was 7.35; in series [4] it was 7.89.
In the case of `CC(C)C[C@H](NC(=O)[C@H](Cc1ccccc1)NC(=O)CN1CCOCC1)C(=O)[C@@]1(C)CO1`, the pIC50 in series [1], in series [2], in series [3] and in series [4] was < 6.00 in each case.
On to `CC[C@H](NC(=O)[C@H](COC)NC(=O)c1cc(C)on1)C(=O)N[C@@H](CC(C)C)C(=O)[C@@]1(C)CO1`, for which the remaining at 0.25 h, 4 µM in series [5] was 100%. The pIC50 in series [1] is 6.33; in series [2] it was 6.61; in series [3], 7.04; in series [4] it was 7.27. In addition, the Activity in the series with Mus musculus [7] was 90%. In addition, the hepatic extraction ratio at 1 µM in series [8] turned out to be 0.47 dimensionless ratio.
`CC(C)C[C@H](NC(=O)c1ccno1)C(=O)N[C@@H](Cc1ccccc1)C(=O)N[C@@H](CC(C)C)C(=O)[C@@]1(C)CO1`: the pIC50 is 7.09 in series [1], 7.19 in series [2], 7.24 in series [3] and 8.24 in series [4].
Consider `CC(C)C[C@H](NC(=O)c1ccn(C)n1)C(=O)N[C@@H](Cc1ccccc1)C(=O)N[C@@H](CC(C)C)C(=O)[C@@]1(C)CO1`, for which the pIC50 is 6.69 in series [1], 6.54 in series [2], 6.86 in series [3] and 7.12 in series [4].
With `CC(C)C[C@H](NC(=O)[C@H]1CCCO1)C(=O)N[C@@H](Cc1ccccc1)C(=O)N[C@@H](CC(C)C)C(=O)[C@@]1(C)CO1`, the pIC50 in series [1] is 6.96; in series [2] it was 6.81; in series [3], 7.16; in series [4], 7.47.
As to `COC[C@H](NC(=O)c1cc(C)on1)C(=O)N[C@@H](CC#N)C(=O)N[C@@H](CC(C)C)C(=O)[C@@]1(C)CO1`, the remaining at 0.25 h, 4 µM in series [5] was 100%. Moreover, the negative-log IC50 (pIC50) in series [1] is 6.03; in series [2], 7.04; in series [3], 7.54; in series [4], 7.40. Also, the Activity in the series on Mus musculus [7] came to 40%. Also, in series [8], the hepatic extraction ratio at 1 µM came to 0.28 dimensionless ratio.
Regarding `CC(C)C[C@H](NC(=O)c1ccon1)C(=O)N[C@@H](Cc1ccccc1)C(=O)N[C@@H](CC(C)C)C(=O)[C@@]1(C)CO1`, the pIC50 in series [1] was 6.91; in series [2], 7.30; in series [3], 7.14; in series [4], 8.13.
On to `CC(C)C[C@H](NC(=O)c1cnco1)C(=O)N[C@@H](Cc1ccccc1)C(=O)N[C@@H](CC(C)C)C(=O)[C@@]1(C)CO1`, for which the pIC50 is 6.30 in series [1], 7.08 in series [2], 6.80 in series [3] and 7.57 in series [4].
In the case of `CC(C)C[C@H](NC(=O)[C@H](Cc1ccccc1)NC(=O)[C@H](Cc1cscn1)NC(=O)c1cc(CN2CCOCC2)on1)C(=O)[C@@]1(C)CO1`, the remaining at 0.25 h, 4 µM in series [5] is 15%. Besides, the Activity in the series on Mus musculus [6] turned out to be 93%. Moreover, the pIC50 in series [1] is 6.08; in series [2] it was 7.23; in series [3], 8.10; in series [4], 8.16.
Consider `CC(C)C[C@H](NC(=O)c1ncc[nH]1)C(=O)N[C@@H](Cc1ccccc1)C(=O)N[C@@H](CC(C)C)C(=O)[C@@]1(C)CO1`, for which the pIC50 was < 6.00 in series [1], 6.57 in series [2], 6.87 in series [3] and 6.97 in series [4].
Regarding `COCc1cc(C(=O)N[C@@H](CC(C)C)C(=O)N[C@@H](Cc2ccccc2)C(=O)N[C@@H](CC(C)C)C(=O)[C@@]2(C)CO2)no1`, the pIC50 in series [1] is 7.55; in series [2], 8.09; in series [3] it was 7.64; in series [4], 8.92.
For the compound `Cc1cc(NC(=O)N[C@@H](CC(C)C)C(=O)N[C@@H](Cc2ccccc2)C(=O)N[C@@H](CC(C)C)C(=O)[C@@]2(C)CO2)no1`, the pIC50 is < 6.00 in series [1], 7.33 in series [2], 6.74 in series [3] and 7.89 in series [4].
Regarding `CC(C)C[C@H](NC(=O)c1ccncc1)C(=O)N[C@@H](Cc1ccccc1)C(=O)N[C@@H](CC(C)C)C(=O)[C@@]1(C)CO1`, the pIC50 was < 6.00 in series [1], 7.26 in series [2], 7.48 in series [3] and 7.70 in series [4].
For the compound `CC(C)C[C@H](NC(=O)[C@H](Cc1ccccc1)NC(=O)[C@H](Cc1ccncc1)NC(=O)c1cc(CN2CCOCC2)on1)C(=O)[C@@]1(C)CO1`, the remaining at 0.25 h, 4 µM in series [5] is 60%. The same compound had an Activity in the series with Mus musculus [6] of 96%. In addition, the pIC50 is < 6.00 in series [1], 7.85 in series [2], 8.06 in series [3] and 8.29 in series [4].
